# Source: PubChem BioAssay (NCI)
#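 Five compound concentrations were applied to cells in 96-well plates for 48 hours; endpoints were derived by simple linear interpolation of the resulting dose-response curve. The concentration for 50% growth inhibition is given as GI50. TGI: concentration producing complete growth inhibition.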
# Columns and labels:
# Assay in all cases: NCI anticancer screen, dose series, 48 h
# SK-MEL-28 melanoma = system: SK-MEL-28 melanoma
# KM12 colon = system: KM12 colon
# NCI-H460 lung = system: NCI-H460 lung
# NCI-H23 lung = system: NCI-H23 lung
# HCT-116 colon = system: HCT-116 colon
# A498 renal = system: A498 renal
# CCRF-CEM leukemia = system: CCRF-CEM leukemia
# HT29 colon = system: HT29 colon
# OVCAR-3 ovarian = system: OVCAR-3 ovarian
# HL-60(TB) leukemia = system: HL-60(TB) leukemia
# MOLT-4 leukemia = system: MOLT-4 leukemia
# K-562 leukemia = system: K-562 leukemia
# SNB-75 CNS = system: SNB-75 CNS
# U251 CNS = system: U251 CNS
# HCT-15 colon = system: HCT-15 colon
# LOX IMVI melanoma = system: LOX IMVI melanoma
# RXF 393 renal = system: RXF 393 renal
# RPMI-8226 leukemia = system: RPMI-8226 leukemia
# OVCAR-4 ovarian = system: OVCAR-4 ovarian
# SK-MEL-5 melanoma = system: SK-MEL-5 melanoma
# SK-MEL-2 melanoma = system: SK-MEL-2 melanoma
# SF-268 CNS = system: SF-268 CNS
# HOP-92 NSCLC = system: HOP-92 NSCLC
# HS 578T breast = system: HS 578T breast
# NCI-H226 lung = system: NCI-H226 lung
# SR leukemia = system: SR leukemia
# UO-31 renal = system: UO-31 renal
# SK-OV-3 ovarian = system: SK-OV-3 ovarian
# IGROV1 ovarian = system: IGROV1 ovarian
# UACC-257 melanoma = system: UACC-257 melanoma
# T-47D breast = system: T-47D breast
# SF-539 CNS = system: SF-539 CNS
# SN12C renal = system: SN12C renal
# MDA-MB-435 = system: MDA-MB-435
# M14 melanoma = system: M14 melanoma
# A549 NSCLC = system: A549 NSCLC
# HOP-62 NSCLC = system: HOP-62 NSCLC
# SW-620 colon = system: SW-620 colon
# EKVX NSCLC = system: EKVX NSCLC
# 786-0 renal = system: 786-0 renal
# MDA-MB-231 breast = system: MDA-MB-231 breast
# DU-145 prostate = system: DU-145 prostate
# MALME-3M melanoma = system: MALME-3M melanoma
# SNB-19 CNS = system: SNB-19 CNS
# NCI-H522 lung = system: NCI-H522 lung
# ACHN renal = system: ACHN renal
# OVCAR-8 ovarian = system: OVCAR-8 ovarian
# COLO 205 colon = system: COLO 205 colon
# TK-10 renal = system: TK-10 renal
# SF-295 CNS = system: SF-295 CNS
# MCF7 breast = system: MCF7 breast
# BT-549 breast = system: BT-549 breast
# CAKI-1 renal = system: CAKI-1 renal
smiles,measurement,setting,value
CCOC(=O)C1=C(C)N(c2ccc(Cl)cc2)[C@]2(C#N)C(O)=C(Cl)C(Cl)=C(O)[C@]12C#N,GI50,SK-MEL-28 melanoma,> 100 µM
same,TGI,SK-MEL-28 melanoma,> 100 µM
same,GI50,KM12 colon,47.9 µM
same,TGI,KM12 colon,> 100 µM
same,GI50,NCI-H460 lung,> 100 µM
same,TGI,NCI-H460 lung,> 100 µM
same,GI50,NCI-H23 lung,> 100 µM
same,TGI,NCI-H23 lung,> 100 µM
same,GI50,HCT-116 colon,90 µM
same,TGI,HCT-116 colon,> 100 µM
same,GI50,A498 renal,> 100 µM
same,TGI,A498 renal,> 100 µM
same,GI50,CCRF-CEM leukemia,25.6 µM
same,TGI,CCRF-CEM leukemia,75.9 µM
same,GI50,HT29 colon,51.9 µM
same,TGI,HT29 colon,> 100 µM
same,GI50,OVCAR-3 ovarian,65 µM
same,TGI,OVCAR-3 ovarian,> 100 µM
same,GI50,HL-60(TB) leukemia,88.2 µM
same,TGI,HL-60(TB) leukemia,> 100 µM
same,GI50,MOLT-4 leukemia,> 100 µM
same,TGI,MOLT-4 leukemia,> 100 µM
same,GI50,K-562 leukemia,21.5 µM
same,TGI,K-562 leukemia,> 100 µM
same,GI50,SNB-75 CNS,26.1 µM
same,TGI,SNB-75 CNS,83 µM
same,GI50,U251 CNS,> 100 µM
same,TGI,U251 CNS,> 100 µM
same,GI50,HCT-15 colon,45.8 µM
same,TGI,HCT-15 colon,> 100 µM
same,GI50,LOX IMVI melanoma,4.95 µM
same,TGI,LOX IMVI melanoma,> 100 µM
same,GI50,RXF 393 renal,> 100 µM
same,TGI,RXF 393 renal,> 100 µM
same,GI50,RPMI-8226 leukemia,48.6 µM
same,TGI,RPMI-8226 leukemia,> 100 µM
same,GI50,OVCAR-4 ovarian,> 100 µM
same,TGI,OVCAR-4 ovarian,> 100 µM
same,GI50,SK-MEL-5 melanoma,> 100 µM
same,TGI,SK-MEL-5 melanoma,> 100 µM
same,GI50,SK-MEL-2 melanoma,> 100 µM
same,TGI,SK-MEL-2 melanoma,> 100 µM
same,GI50,SF-268 CNS,> 100 µM
same,TGI,SF-268 CNS,> 100 µM
same,GI50,HOP-92 NSCLC,78.2 µM
same,TGI,HOP-92 NSCLC,> 100 µM
same,GI50,HS 578T breast,> 100 µM
same,TGI,HS 578T breast,> 100 µM
same,GI50,NCI-H226 lung,> 100 µM
same,TGI,NCI-H226 lung,> 100 µM
same,GI50,SR leukemia,20.6 µM
same,TGI,SR leukemia,> 100 µM
same,GI50,UO-31 renal,53.8 µM
same,TGI,UO-31 renal,> 100 µM
same,GI50,SK-OV-3 ovarian,69.6 µM
same,TGI,SK-OV-3 ovarian,> 100 µM
same,GI50,IGROV1 ovarian,> 100 µM
same,TGI,IGROV1 ovarian,> 100 µM
same,GI50,UACC-257 melanoma,> 100 µM
same,TGI,UACC-257 melanoma,> 100 µM
same,GI50,T-47D breast,16.9 µM
same,TGI,T-47D breast,81 µM
same,GI50,SF-539 CNS,8.61 µM
same,TGI,SF-539 CNS,96.8 µM
same,GI50,SN12C renal,> 100 µM
same,TGI,SN12C renal,> 100 µM
same,GI50,MDA-MB-435,44.8 µM
same,TGI,MDA-MB-435,> 100 µM
same,GI50,M14 melanoma,49.7 µM
same,TGI,M14 melanoma,> 100 µM
same,GI50,A549 NSCLC,> 100 µM
same,TGI,A549 NSCLC,> 100 µM
same,GI50,HOP-62 NSCLC,> 100 µM
same,TGI,HOP-62 NSCLC,> 100 µM
same,GI50,SW-620 colon,66.3 µM
same,TGI,SW-620 colon,> 100 µM
same,GI50,EKVX NSCLC,6.24 µM
same,TGI,EKVX NSCLC,43.2 µM
same,GI50,786-0 renal,> 100 µM
same,TGI,786-0 renal,> 100 µM
same,GI50,MDA-MB-231 breast,38.8 µM
same,TGI,MDA-MB-231 breast,> 100 µM
same,GI50,DU-145 prostate,0.339 µM
same,TGI,DU-145 prostate,24.5 µM
same,GI50,MALME-3M melanoma,> 100 µM
same,TGI,MALME-3M melanoma,> 100 µM
same,GI50,SNB-19 CNS,> 100 µM
same,TGI,SNB-19 CNS,> 100 µM
same,GI50,NCI-H522 lung,56.5 µM
same,TGI,NCI-H522 lung,> 100 µM
same,GI50,ACHN renal,31.6 µM
same,TGI,ACHN renal,> 100 µM
same,GI50,OVCAR-8 ovarian,> 100 µM
same,TGI,OVCAR-8 ovarian,> 100 µM
same,GI50,COLO 205 colon,59.6 µM
same,TGI,COLO 205 colon,> 100 µM
same,GI50,TK-10 renal,65.4 µM
same,TGI,TK-10 renal,> 100 µM
same,GI50,SF-295 CNS,> 100 µM
same,TGI,SF-295 CNS,> 100 µM
same,GI50,MCF7 breast,> 100 µM
same,TGI,MCF7 breast,> 100 µM
same,GI50,BT-549 breast,1.57 µM
same,TGI,BT-549 breast,33.4 µM
same,GI50,CAKI-1 renal,38 µM
same,TGI,CAKI-1 renal,> 100 µM
